Test results from ChEMBL document CHEMBL3826956, “Cholinesterase inhibitory activity of isoquinoline alkaloids from three Cryptocarya species (Lauraceae)” (Bioorg Med Chem, 2016).

Columns and labels:
[1] = biological target: Acetylcholinesterase (Electrophorus electricus) (UniProt O42275); assay: Inhibition of electric eel AChE at 100 ug/ml preincubated for 15 mins followed by addition of acetylthiocholine iodide as substrate measured after 30 mins by Ellman's microplate assay
[2] = biological target: Cholinesterase (Equus caballus) (UniProt P81908); assay: Inhibition of equine serum BChE at 100 ug/ml preincubated for 15 mins followed by addition of S-butyrylthiocholine chloride as substrate measured after 30 mins by Ellman's microplate assay
[3] = biological target: T1, Cholinesterase (Equus caballus, UniProt P81908); assay: Inhibition of equine serum BChE preincubated for 15 mins followed by addition of S-butyrylthiocholine chloride as substrate measured after 30 mins by Ellman's microplate assay
[4] = biological target: Acetylcholinesterase (Electrophorus electricus, UniProt O42275); assay: Inhibition of electric eel AChE preincubated for 15 mins followed by addition of acetylthiocholine iodide as substrate measured after 30 mins by Ellman's microplate assay
[5] = Selectivity ratio, ratio of IC50 for equine serum BChE to electric eel AChE
[6] = Selectivity ratio, ratio of IC50 for electric eel AChE to equine serum BChE
[7] = biological target: T1, Cholinesterase; assay: Mixed-type inhibition of equine serum BChE preincubated for 15 mins followed by addition of S-butyrylthiocholine chloride as substrate measured after 30 mins by Lineweaver-Burk plot analysis

T1 sequence (P81908 whole entry): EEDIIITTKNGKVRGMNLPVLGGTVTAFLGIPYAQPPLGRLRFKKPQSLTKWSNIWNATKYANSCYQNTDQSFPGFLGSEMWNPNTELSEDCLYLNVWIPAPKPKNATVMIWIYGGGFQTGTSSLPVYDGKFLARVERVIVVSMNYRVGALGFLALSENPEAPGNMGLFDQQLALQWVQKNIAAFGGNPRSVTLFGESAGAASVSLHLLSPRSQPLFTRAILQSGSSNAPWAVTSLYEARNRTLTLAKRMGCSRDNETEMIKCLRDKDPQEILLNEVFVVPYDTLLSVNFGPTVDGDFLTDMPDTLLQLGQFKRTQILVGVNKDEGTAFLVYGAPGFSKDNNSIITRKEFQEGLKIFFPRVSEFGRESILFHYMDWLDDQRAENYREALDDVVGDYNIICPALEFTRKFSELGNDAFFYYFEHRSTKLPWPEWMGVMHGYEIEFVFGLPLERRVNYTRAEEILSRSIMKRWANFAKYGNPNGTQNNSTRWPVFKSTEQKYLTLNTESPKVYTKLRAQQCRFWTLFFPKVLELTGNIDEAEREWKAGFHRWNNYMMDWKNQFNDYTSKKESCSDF
Cholinesterase (Equus caballus), sequence (P81908 whole entry): as above
Acetylcholinesterase (Electrophorus electricus), sequence (O42275 24-633 limits assumed): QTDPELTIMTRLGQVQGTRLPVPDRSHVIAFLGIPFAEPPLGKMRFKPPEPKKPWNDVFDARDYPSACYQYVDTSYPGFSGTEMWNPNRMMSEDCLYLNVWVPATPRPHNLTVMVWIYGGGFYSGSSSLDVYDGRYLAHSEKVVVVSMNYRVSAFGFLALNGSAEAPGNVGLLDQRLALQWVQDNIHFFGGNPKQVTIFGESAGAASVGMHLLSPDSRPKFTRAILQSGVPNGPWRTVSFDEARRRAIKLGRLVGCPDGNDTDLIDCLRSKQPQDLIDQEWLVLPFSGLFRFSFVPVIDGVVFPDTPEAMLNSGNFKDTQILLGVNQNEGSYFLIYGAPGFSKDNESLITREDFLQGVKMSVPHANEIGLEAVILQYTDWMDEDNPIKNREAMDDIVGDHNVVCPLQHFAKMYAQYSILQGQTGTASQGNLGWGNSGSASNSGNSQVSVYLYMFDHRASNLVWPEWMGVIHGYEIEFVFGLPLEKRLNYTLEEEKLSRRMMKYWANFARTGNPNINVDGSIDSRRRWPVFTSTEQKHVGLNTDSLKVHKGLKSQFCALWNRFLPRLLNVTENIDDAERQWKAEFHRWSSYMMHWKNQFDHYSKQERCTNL
Acetylcholinesterase, sequence (O42275 whole entry): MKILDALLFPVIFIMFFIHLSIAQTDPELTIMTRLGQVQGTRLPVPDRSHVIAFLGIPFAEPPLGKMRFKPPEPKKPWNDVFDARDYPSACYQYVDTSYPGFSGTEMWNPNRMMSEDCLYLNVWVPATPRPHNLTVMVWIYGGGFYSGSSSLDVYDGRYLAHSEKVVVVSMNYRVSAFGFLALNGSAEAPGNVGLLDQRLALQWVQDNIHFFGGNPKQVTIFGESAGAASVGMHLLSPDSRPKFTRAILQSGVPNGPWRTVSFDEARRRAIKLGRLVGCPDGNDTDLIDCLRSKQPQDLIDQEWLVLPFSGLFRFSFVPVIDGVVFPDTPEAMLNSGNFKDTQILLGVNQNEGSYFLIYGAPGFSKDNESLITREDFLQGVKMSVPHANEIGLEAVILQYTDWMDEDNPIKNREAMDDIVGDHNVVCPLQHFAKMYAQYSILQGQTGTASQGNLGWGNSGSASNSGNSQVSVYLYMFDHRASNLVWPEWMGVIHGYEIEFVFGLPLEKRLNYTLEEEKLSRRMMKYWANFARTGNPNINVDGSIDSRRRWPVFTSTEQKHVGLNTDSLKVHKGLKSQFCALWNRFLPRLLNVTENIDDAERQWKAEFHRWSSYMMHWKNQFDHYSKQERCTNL

| Compound | inhibition [1] [%] | inhibition [2] [%] | IC50 [3] [µM] | IC50 [4] [µM] | Ratio IC50 [5] | Ratio IC50 [6] | Ki [7] [µM] |
| --- | --- | --- | --- | --- | --- | --- | --- |
| COc1cc2c3c(c1O)C1(CCC(O)CC1)CC3NCC2 (stereo not given) | 27.9 | 52.1 | 288 |  |  |  |  |
| COc1ccc(C[C@H]2c3cc(O)c(OC)cc3CCN2C)cc1O [(S)-RETICULINE] | 53 | 84.1 | 65 | 301 | 0.22 | 4.63 |  |
| COc1cc(CCN(C)C)c2ccc3ccccc3c2c1OC | 2.06 | 83.9 | 19.3 |  |  |  |  |
| COc1cc2c3c(c1OC)-c1cc4c(cc1C[C@@H]3NCC2)OCO4 | 50.4 | 75.8 | 94.4 | 206 | 0.46 | 2.18 |  |
| COc1cc2c(cc1O)C[C@@H]1NCCc3cc(OC)c(OC)c-2c31 | 17.5 | 22.6 |  |  |  |  |  |
| COc1cc2c(cc1O)C[C@H]1c3c(cc(OC)c(OC)c3-2)CCN1C | 38.8 | 51 | 219 |  |  |  |  |
| COc1cc2c(cc1O)CCN(C)C2Cc1ccc(O)cc1 (stereo not given) | 14.9 | 37.3 |  |  |  |  |  |
| COc1c(OC)c(OC)c2c(ccc3ccccc32)c1CCN(C)C | 31.6 | 95.2 | 3.95 |  |  |  | 6.72 |
| COc1ccc(C2=C(c3ccc(O)cc3)CN3CCC[C@@H]3C2)cc1OC | 51.4 | 59.4 | 167 | 202 | 0.83 | 1.21 |  |
